Test results taken from ChEMBL document CHEMBL1140309, “p53 Activation by small molecules: application in oncology” (J Med Chem, 2005).

Target: Tumour suppressor p53/oncoprotein Mdm2 (Homo sapiens, UniProt P04637+Q00987)
Assay: Inhibitory activity against MDM2 (murine double minute-2 gene) binding to p53
Assay type: protein assay

Sequence of Tumour suppressor p53/oncoprotein Mdm2 (P04637 whole entry): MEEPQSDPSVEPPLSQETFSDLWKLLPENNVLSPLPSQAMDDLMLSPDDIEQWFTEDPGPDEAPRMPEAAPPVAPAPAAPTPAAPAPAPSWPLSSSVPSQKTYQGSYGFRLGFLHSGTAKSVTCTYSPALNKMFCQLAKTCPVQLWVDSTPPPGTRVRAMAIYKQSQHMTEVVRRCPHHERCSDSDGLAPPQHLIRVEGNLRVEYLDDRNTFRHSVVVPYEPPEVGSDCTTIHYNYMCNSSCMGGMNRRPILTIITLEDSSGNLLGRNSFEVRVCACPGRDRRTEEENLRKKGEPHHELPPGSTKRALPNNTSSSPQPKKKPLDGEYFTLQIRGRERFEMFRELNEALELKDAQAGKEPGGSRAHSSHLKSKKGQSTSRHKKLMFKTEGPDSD
Sequence of Tumour suppressor p53/oncoprotein Mdm2 (Q00987 whole entry): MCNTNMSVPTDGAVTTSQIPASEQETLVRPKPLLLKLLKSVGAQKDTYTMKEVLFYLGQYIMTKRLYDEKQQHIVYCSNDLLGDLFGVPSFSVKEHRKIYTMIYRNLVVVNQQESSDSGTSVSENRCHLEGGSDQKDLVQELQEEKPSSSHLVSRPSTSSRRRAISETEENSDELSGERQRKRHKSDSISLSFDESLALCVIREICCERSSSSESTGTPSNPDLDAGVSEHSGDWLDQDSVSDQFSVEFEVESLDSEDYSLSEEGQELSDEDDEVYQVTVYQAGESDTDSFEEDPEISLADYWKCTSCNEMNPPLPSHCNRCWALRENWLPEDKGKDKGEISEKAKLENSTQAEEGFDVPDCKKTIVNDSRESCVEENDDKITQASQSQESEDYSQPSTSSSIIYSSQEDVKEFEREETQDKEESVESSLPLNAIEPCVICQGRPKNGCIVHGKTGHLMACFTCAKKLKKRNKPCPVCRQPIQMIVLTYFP

CC(C)Oc1ccc(C(=O)NS(=O)(=O)c2ccc(NN=C3C(=O)N(c4ccccc4)N(c4ccccc4)C3=O)cc2)cc1
IC50: 30 µM
